Laboratory results published in the NIST ThermoML archive (doi:10.1016/j.jct.2007.06.020).
Numbers after ± are expanded uncertainties.

Experiment: molar enthalpy of vaporization or sublimation
Conditions: 298.15 K; Liquid; Calvet microcalorimetry

Row | SMILES | molar enthalpy [kcal/mol]
1 | N#Cc1cccs1 [2-cyanothiophene] | 11.8 ± 0.526
2 | N#Cc1ccsc1 [3-thiophenecarbonitrile] | 12.3 ± 0.908
3 | N#CCc1cccs1 [2-thiopheneacetonitrile] | 14.5 ± 0.621
4 | N#CCc1ccsc1 [3-thiopheneacetonitrile] | 14.6 ± 0.621
5 | Cc1ccsc1C#N [3-methylthiophene-2-carbonitrile] | 13 ± 0.574
